Assay results reported in patent US8153631B2, “Triazole compounds and uses related thereto” (Amgen Inc., priority 2003, dated 2012).

Target: T1, human HSD1 (recombinant HSD1) (Homo sapiens, UniProt P28845)
T1 construct: made in house
Experiment: In vitro HSD1 activity inhibitory action, SPA of cortisone to cortisol conversion
Type: biochemical
Details: recombinant human HSD1 0.1 μg/ml, 500 μM NADPH, 16 nM 3H cortisone, room temperature 90 min, read-out: hHSD1 IC50
Protocol: In Vitro HSD1 (Hydroxysteroid Dehydrogenase 1) Activity Inhibitory Action
The HSD1 inhibitory activity was examined by quantitative determination by an SPA (scintillation proximity assay) system of the suppressive action on the conversion from cortisone to cortisol using human HSD1 (hereinafter recombinant HSD1) expressed using a baculo-virus system as an enzyme source. For the reaction, a reagent was added to a 96 well plate (96 well Opti-plates™-96 (Packard)) to the following final concentration and a volume of 100 μl was reacted at room temperature for 90 min. The reaction solution used was 0.1 μg/ml recombinant HSD1, 500 μM NADPH, 16 nM ^3H cortisone (Amersham Biosciences, 1.78 Tbq/mol) dissolved in 0.1% BSA (Sigma)-containing PBS and the test drug was 2 μl of a compound solution (dissolved in DMSO). After 90 min, the reaction was stopped by adding PBS (40 μl, containing 0.1% BSA (Sigma)) containing 0.08 μg of anti-cortisol mouse monoclonal antibody (East Coast Biologics), 365 μg SPA PVT mouse antibody-binding beads (Amersham Biosciences) and 175 μM carbenoxolone (Sigma) to the reaction solution. After the completion of the reaction, the plate was incubated overnight at room temperature and the radioactivity was measured by Topcount (Packard). For control, the value (0% inhibition) of the well containing 2 μl of DMSO instead of the test drug was used, and for positive control, the value (100% inhibition) of the well containing carbenoxolone instead of the test drug at the final concentration of 50 μM was used. The inhibition (%) of the test drug was calculated by ((value of control−value of test drug)/(value of control−value of positive control))×100 (%). The IC50 value was analyzed using a computer-based curve fitting soft.

T1 sequence (P28845 whole entry): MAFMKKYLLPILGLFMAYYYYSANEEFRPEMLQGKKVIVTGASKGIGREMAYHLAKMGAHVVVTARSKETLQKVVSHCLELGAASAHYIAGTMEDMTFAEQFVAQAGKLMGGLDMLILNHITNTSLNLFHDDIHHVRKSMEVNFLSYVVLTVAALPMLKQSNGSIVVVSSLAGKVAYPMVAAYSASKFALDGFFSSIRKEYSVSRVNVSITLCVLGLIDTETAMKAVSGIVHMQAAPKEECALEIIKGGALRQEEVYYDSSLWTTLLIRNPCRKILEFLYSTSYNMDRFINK

IC50 [nM] | SMILES
< 10 | CN(C)c1ccc(-c2nnc(C3(c4ccccc4)CC3)n2C)c(Cl)c1 [Ex. 1-89]
< 10 | CN(c1ccccn1)c1nnc(C2(c3ccccc3)CC2)n1C [Ex. 2-95]
10 to 1000 | Cn1c(N2CCC(O)(c3ccccc3)CC2)nnc1C1(c2ccccc2)CC1 [Ex. 2-40]
< 10 | Cn1c(-c2ccc(NC(=O)CO)cc2Cl)nnc1C1(c2ccccc2)CC1 [Ex. 1-23]
< 10 | Cn1c(-c2ccc(NC(N)=O)cc2Cl)nnc1C1(c2ccccc2)CC1 [Ex. 1-35]
10 to 1000 | Cn1c(-c2ccc(Cl)nc2Cl)nnc1C1(c2ccccc2)CC1 [Ex. 1-97]
< 10 | CN(c1ccc(Cl)cc1)c1nnc(C2(c3ccccc3)CC2)n1C [Ex. 2-94]
10 to 1000 | CC(=O)NCCNC(=O)c1ccc(-c2nnc(C3(c4ccccc4)CC3)n2C)c(Cl)c1 [Ex. 1-84]
< 10 | CCN(Cc1ccccc1)c1nnc(C2(c3ccccc3)CC2)n1C [Ex. 2-92]
< 10 | Cn1c(-c2ccc(Br)cc2Cl)nnc1C1(c2ccccc2)CC1 [Ex. 1-100]
10 to 1000 | Cn1c(-c2ccc(OCCN)cc2Cl)nnc1C1(c2ccccc2)CC1 [Ex. 1-130]
< 10 | Cn1c(-c2ccccc2Cl)nnc1C1(c2ccc(F)cc2)CC1 [Ex. 1-134]
< 10 | Cn1c(-c2ccc(N3CCCC3)cc2Cl)nnc1C1(c2ccccc2)CC1 [Ex. 1-57]
< 10 | Cn1c(N2CCN(c3ccccc3Cl)CC2)nnc1C1(c2ccccc2)CC1 [Ex. 2-85]
< 10 | Cn1c(-c2ccc(S(C)(=O)=O)cc2Cl)nnc1C1(c2ccccc2)CC1 [Ex. 1-71]
< 10 | Cn1c(-c2ccc([N+](=O)[O-])cc2Cl)nnc1C1(c2ccccc2)CC1 [Ex. 1-20]
< 10 | Cn1c(-c2ccc(OCCO)cc2Cl)nnc1C1(c2ccccc2)CC1 [Ex. 1-119]
< 10 | Cn1c(-c2ccc(C(N)=O)cc2Cl)nnc1C1(c2ccccc2)CC1 [Ex. 1-73]
< 10 | CN(C)CC(=O)Nc1ccc(-c2nnc(C3(c4ccccc4)CC3)n2C)c(Cl)c1 [Ex. 1-25]
10 to 1000 | COc1cc(C(=O)O)ccc1-c1nnc(C2(c3ccccc3)CC2)n1C [Ex. 1-124]
< 10 | Cn1c(-c2ccc(C(C)(O)C(F)(F)F)cc2Cl)nnc1C1(c2ccccc2)CC1 (stereo not drawn) [Ex. 1-102]
10 to 1000 | COCCNC(=O)c1ccc(-c2nnc(C3(c4ccccc4)CC3)n2C)c(Cl)c1 [Ex. 1-85]
< 10 | Cn1c(N2Cc3ccccc3C2)nnc1C1(c2ccccc2)CC1 [Ex. 2-91]
< 10 | Cn1c(-c2ccncc2Cl)nnc1C1(c2ccccc2)CC1 [Ex. 1-96]
< 10 | Cn1c(N2CCC(c3ccccc3)CC2)nnc1C1(c2ccccc2)CC1 [Ex. 2-1, 1-[4-methyl-5-(1-phenylcyclopropyl)-4H-[1,2,4]triazol-3-yl]-4-phenylpiperidine]
10 to 1000 | CC(C)NC(=O)c1ccc(-c2nnc(C3(c4ccccc4)CC3)n2C)c(Cl)c1 [Ex. 1-79]

The next lines start with the molecule.

SMILES | IC50 [nM]
Cn1c(N2CCC(C)(C(=O)O)CC2)nnc1C1(c2ccccc2)CC1 [Ex. 2-69] | 10 to 1000
COC(=O)C1CCN(c2ccc(-c3nnc(C4(c5ccccc5)CC4)n3C)c(Cl)c2)CC1 [Ex. 1-58] | < 10
Clc1cnc(OC2CCN(c3nnc(C4(c5ccccc5)CC4)n3C3CC3)CC2)c(Cl)c1 [Ex. 2-78] | < 10
Cn1c(C2CCCCC2)nnc1C1(c2ccccc2)CC1 [Ex. 1-103] | < 10
Cn1c(-c2ccc(N3CCCC3=O)cc2Cl)nnc1C1(c2ccccc2)CC1 [Ex. 1-27] | 10 to 1000
COC(=O)CCn1c(C2CCN(c3c(Cl)cncc3Cl)CC2)nnc1C1(c2ccccc2)CC1 [Ex. 1-8] | < 10
CNC1CCN(c2nnc(C3(c4ccccc4)CC3)n2C)CC1 [Ex. 2-12] | 10 to 1000
CC(C)n1c(-c2ccc(Cl)cc2)nnc1C1(c2ccc(F)cc2)CC1 [Ex. 1-106] | < 10
Cn1c(N2CCN(c3ccc(F)cc3)CC2)nnc1C1(c2ccccc2)CC1 [Ex. 2-89] | 10 to 1000
COc1ccc(C2(c3nnc(N4CCC(Oc5ncc(Cl)cc5Cl)CC4)n3C)CC2)cc1 [Ex. 2-83] | 10 to 1000
Cn1c(-c2ccc(C(N)=O)cc2Cl)nnc1C1(c2cccs2)CC1 [Ex. 1-144] | < 10
Cn1c(C2(c3ccccc3)CC2)nnc1[C@H]1CC[C@H](C(N)=O)CC1 [Ex. 1-112] | < 10
CC(=O)N1CCC(c2nnc(C3(c4ccccc4)CC3)n2C)CC1 [Ex. 1-4] | 10 to 1000
Cn1c(N2CCC(Oc3ncccc3Cl)CC2)nnc1C1(c2ccccc2)CC1 [Ex. 2-38] | < 10
Cn1c(-c2ccc(N3CCOCC3)cc2Cl)nnc1C1(c2ccccc2)CC1 [Ex. 1-90] | < 10
Cn1c(N2CCC(Oc3ccc(C#N)cc3)CC2)nnc1C1(c2ccccc2)CC1 [Ex. 2-52] | < 10
COCCn1c(N2CCC(Oc3ncc(Cl)cc3Cl)CC2)nnc1C1(c2ccccc2)CC1 [Ex. 2-72] | 10 to 1000
NCCn1c(C2CCN(c3c(Cl)cncc3Cl)CC2)nnc1C1(c2ccccc2)CC1 [Ex. 1-6] | 10 to 1000
CNC(=O)C1CCN(c2nnc(C3(c4ccccc4)CC3)n2C)CC1 [Ex. 2-18] | 10 to 1000
C=CCn1c(N2CCC(Oc3ncc(Cl)cc3Cl)CC2)nnc1C1(c2ccccc2)CC1 [Ex. 2-75] | < 10
Cn1c(N2CCC(C)(C(N)=O)CC2)nnc1C1(c2ccccc2)CC1 [Ex. 2-70] | < 10
CCn1c(N2CCC(Oc3ncc(Cl)cc3Cl)CC2)nnc1C1(c2ccccc2)CC1 [Ex. 2-79] | < 10
Cn1c(N2CCS(=O)(=O)CC2)nnc1C1(c2ccccc2)CC1 [Ex. 2-22] | 10 to 1000
COC(=O)[C@H]1CC[C@H](c2nnc(C3(c4ccccc4)CC3)n2C)CC1 [Ex. 1-104] | 10 to 1000
Cn1c(C2(c3ccccc3)CC2)nnc1[C@H]1CC[C@H](C(=O)O)CC1 [Ex. 1-111] | 10 to 1000
Cn1c(-c2cc(Cl)ccc2Cl)nnc1C1(c2ccc(F)cc2)CC1 [Ex. 1-122] | < 10

SMILES | IC50 [nM]
Cn1c(-c2ccc(NC(=O)CN3CCCC(O)C3)cc2Cl)nnc1C1(c2ccccc2)CC1 (stereo not drawn) [Ex. 1-44] | 10 to 1000
COCCNC(=O)C1CCN(c2ccc(-c3nnc(C4(c5ccccc5)CC4)n3C)c(Cl)c2)CC1 [Ex. 1-110] | < 10
Cn1c(N2CCC(Oc3ncc(C(F)(F)F)cc3Cl)CC2)nnc1C1(c2ccccc2)CC1 [Ex. 2-37] | 10 to 1000
Cn1c(N2CCC(Oc3ccc(Cl)c(C(=O)O)c3)CC2)nnc1C1(c2ccccc2)CC1 [Ex. 2-64] | 10 to 1000
CNC(=O)C1CCN(c2ccc(-c3nnc(C4(c5ccccc5)CC4)n3C)c(Cl)c2)CC1 [Ex. 1-60] | < 10
Cn1c(-c2ccc(N3CCN(S(C)(=O)=O)CC3)cc2Cl)nnc1C1(c2ccccc2)CC1 [Ex. 1-50] | < 10
COC(=O)c1ccc(OC2CCN(c3nnc(C4(c5ccccc5)CC4)n3C)CC2)cc1 [Ex. 2-47] | 10 to 1000
Cn1c(-c2ccc(Cl)cc2Cl)nnc1C1(c2ccc(F)cc2)CCCC1 [Ex. 1-123] | < 10
Cn1c(-c2ccc(N3CCC4(CC3)OCCO4)cc2Cl)nnc1C1(c2ccccc2)CC1 [Ex. 1-61] | 10 to 1000
COC1CCN(CC(=O)Nc2ccc(-c3nnc(C4(c5ccccc5)CC4)n3C)c(Cl)c2)CC1 [Ex. 1-45] | 10 to 1000
CC(C)n1c(-c2ccc(C(N)=O)cc2)nnc1C1(c2ccc(F)cc2)CC1 [Ex. 1-145] | < 10
Cn1c(N2CCC(Oc3ncc(Cl)cc3Cl)CC2)nnc1C1(c2ccc(Cl)cc2Cl)CC1 [Ex. 2-88] | 10 to 1000
Cn1c(N2CCC(Oc3cccc(C(N)=O)c3)CC2)nnc1C1(c2ccccc2)CC1 [Ex. 2-55] | 10 to 1000
Cn1c(N2CCC(Oc3ccc(F)cc3Cl)CC2)nnc1C1(c2ccccc2)CC1 [Ex. 2-36] | < 10
Cn1c(-c2ccc(N3CCC(C(=O)N4CCCCC4)CC3)cc2Cl)nnc1C1(c2ccccc2)CC1 [Ex. 1-113] | < 10
Cn1c(N2CCNCC2)nnc1C1(c2ccccc2)CC1 [Ex. 2-26] | 10 to 1000
Cn1c(N2CCC(NC(=O)OC(C)(C)C)CC2)nnc1C1(c2ccccc2)CC1 [Ex. 2-7] | 10 to 1000
COC(=O)C1(C)CCN(c2nnc(C3(c4ccccc4)CC3)n2C)CC1 [Ex. 2-67] | < 10
Cn1c(C2(c3ccccc3)CC2)nnc1[C@H]1CC[C@H](Oc2ccc(Cl)cc2Cl)CC1 [Ex. 1-11] | 10 to 1000
Cn1c(C2CCN(Cc3c(Cl)cccc3Cl)CC2)nnc1C1(c2ccccc2)CC1 [Ex. 1-99] | 10 to 1000
Cn1c(N2CCN(Cc3ccc(Cl)cc3Cl)CC2)nnc1C1(c2ccccc2)CC1 [Ex. 2-84] | 10 to 1000
CN(C(=O)OC(C)(C)C)C1CCN(c2nnc(C3(c4ccccc4)CC3)n2C)CC1 [Ex. 2-11] | 10 to 1000
Cn1c(N2CCC(N)CC2)nnc1C1(c2ccccc2)CC1 [Ex. 2-8] | 10 to 1000
Cn1c(N2CCC(Oc3ccc(C(=O)O)cc3)CC2)nnc1C1(c2ccccc2)CC1 [Ex. 2-44] | 10 to 1000
Cn1c(N2CCC(=O)CC2)nnc1C1(c2ccccc2)CC1 [Ex. 2-48] | < 10
Cn1c(-c2ccc(N3CCC(CO)CC3)cc2Cl)nnc1C1(c2ccccc2)CC1 [Ex. 1-108] | < 10
